Laboratory results published in paper PMC11336009 (GeroScience, 2024).
Entries after “also recorded” stand apart in the source; their conditions may differ.

Tested on: 6-OHDA unilateral medial forebrain bundle lesioned rat
Assay: Tyrosine hydroxylase (TH) immunoreactivity in striatum and SNc of 6-OHDA lesioned rats
Type: in vivo
Protocol: treatment was initiated either prior to or after 6-OHDA lesioning (early and delayed treatment, respectively) as follows. (1) Early treatment: […] An estimated dose for a 250-g rat under this treatment was 10 mg/kg/day. (2) Delayed treatment: […] An estimated, clinically relevant, dose for a 250 g rat under this treatment was thus 30 mg/kg/day. Specifically for drug admixture into diet, drug was solubilized in 100% ETOH that was then added to the 16.2 g of food chow. Thereafter, the ETOH was evaporated off. […] Animals were weighed twice weekly and the amount of drug added to the chow was modified accordingly to maintain the daily required dose. […] Specifically, the 10 mg/kg oral daily drug dose in our rat studies is equivalent to the routine human daily oral dose (100 mg in a 65 kg human) of these […] used in T2DM, and the 30 mg/kg rat dose is equivalent to a threefold higher dose that is well-tolerated in humans. Following the exact same protocol described in Yin et al., 2012 [34] and Li et al., 2009 [35], anesthetized rats were injected i.c.v. with PF-00734,200 (15.4 nmole in 20 μL sterile physiological saline (n = 6)) or vehicle (sterile physiological saline, 20 μL (n = 8)) using a 25 μL Hamilton syringe at 10 min prior to 6-OHDA lesioning (Supplemental Fig. 2). The coordinates for the i.c.v. injection were 0.8 mm posterior to bregma, 1.2 mm lateral (Left) to midline, and 3.7 mm ventral to the dural surface. The rate of infusion (4 μL/min) was adjusted by a microprocessor-controlled injector mounted to the stereotaxic frame (UMP4; World Precision Instruments, Sarasota, FL, USA). The needle was slowly removed after 2 min upon completion of the injection. Following the exact same protocol described in Yin et al., 2012 [34] and Harvey et al. 2004 [36], anesthetized rats were subjected to a 6-OHDA unilateral medial forebrain bundle lesion. Briefly, 6-OHDA (2.27 μg/μL × 5 μL in 0.9% NaCl containing 0.2 mg/ml ascorbic acid) was unilaterally injected into the medial forebrain bundle (-4.4 mm AP, 1.2 mm ML relative to bregma and 8.4 mm below skull) over 4 min through a syringe pump (Micro 4, WPI, Sarasota, FL), as approved under National Health Research Institutes, Taiwan, Protocol # 102,068-A; 102,102-A. Following this procedure, all animals were monitored daily for adverse signs of health for 1 week (in line with the approved protocols). BrdU and TH localization was determined by immunohistochemistry. Serial sections of the entire brain were cut at 30 μm thickness by cryostat. One series from every sixth section was stained for TH. To control for staining variability, specimens from all experimental groups were included in every batch and reacted together in a net well tray under the same conditions. Sections were rinsed in 0.1 M phosphate buffer (PB), blocked with 4% bovine serum albumin (BSA) and 0.3% Triton x-100 in 0.1 M PB. Sections were then incubated in a primary antibody solution mouse monoclonal anti-TH diluted in 4% BSA and 0.3% Triton x-100 in 0.1 M PB, concentration 1:100 (Chemicon, Temecula, CA) and polyclonal anti-BrdU (1:500, Millipore, MA, USA) for 17-19 h at 4 °C. Sections were then rinsed in 0.1 M PB and incubated in secondary antibodies for 1 h, followed by incubation for 1 h with avidin-biotin-horseradish peroxidase complex. Thereafter, sections were mounted on slides, and coverslipped. TH and BrdU immunoreactivity was examined under a fluorescent microscope. Sections were incubated without primary antibody as a control and observers were blinded as to treatment groups. TH immunoreactivity and BrdU cell number in striatum were averaged from 3 brain sections with visible anterior commissure in each animal. TH immunoreactivity in SNc was measured every 6th Sect. (30 μm per each section) throughout the extent of midbrain. […] volume was analyzed using Cavalieri's method.

[1] = delayed treatment 30 mg/kg daily p.o. from day 7, day 21
[2] = early treatment 10 mg/kg daily p.o.
[3] = early treatment 10 mg/kg daily p.o., normalized to non-lesioned side, day 35

SMILES | TH cell density in the lesioned SNc vs vehicle [1] | TH pixel density in the lesioned striatum vs vehicle [1] | TH immunoreactivity in the lesioned side SNc vs vehicle [2] | TH immunoreactivity in the non-lesioned side SNc [2] | TH pixel density in the lesioned striatum vs vehicle [3] | TH immunohistochemistry in striatum and SNc vs vehicle (i.c.v. 15.4 nmole 10 min prior to 6-OHDA lesioning)
O=C([C@@H]1C[C@H](N2CCN(c3ncccn3)CC2)CN1)N1CCC(F)(F)C1 [PF-00734,200, Gosogliptin] | significantly increased | a trend, but not a statistically significant | significantly increased | did not alter | significantly increased | lack of neuroprotection; also recorded: no different from similarly vehicle-treated animals
N[C@@H](CC(=O)N1CCn2c(nnc2C(F)(F)F)C1)Cc1cc(F)c(F)cc1F [Sitagliptin] | significantly increased | significantly increased | significantly increased | did not alter | significantly increased | 
